Test results reported in EPA's ToxValDB 9.5 (doi:10.2903/j.efsa.2016.4491).

Tests used:
[1] = tested on: Canidae; settings: chronic, oral, Dog Other, clinical signs
[2] = tested on: Oncorhynchus mykiss
[3] = tested on: Tagia sp.
[4] = tested on: Bibionidae; settings: chronic/long-term; duration: 28 days
[5] = tested on: Anas platyrhynchos
[6] = tested on: Daphnia magna; settings: chronic/long-term; duration: 21 days; reproduction
[7] = tested on: Rattus norvegicus
[8] = tested on: Poecilus cupreus; assay: LR50; higher = less toxic; settings: not reported; mortality

With `CC[C@H](C)[C@H]1O[C@]2(C=C[C@@H]1C)C[C@@H]1C[C@@H](C/C=C(\C)[C@@H](O[C@H]3C[C@H](OC)[C@@H](O[C@H]4C[C@H](OC)[C@@H](O)[C@H](C)O4)[C@H](C)O3)[C@@H](C)/C=C/C=C3\CO[C@@H]4[C@H](O)C(C)=C[C@@H](C(=O)O1)[C@]34O)O2.CO[C@H]1C[C@H](O[C@H]2[C@H](C)O[C@@H](O[C@@H]3/C(C)=C/C[C@@H]4C[C@@H](C[C@]5(C=C[C@H](C)[C@@H](C(C)C)O5)O4)OC(=O)[C@@H]4C=C(C)[C@@H](O)[C@H]5OC/C(=C\C=C\[C@@H]3C)[C@]54O)C[C@@H]2OC)O[C@@H](C)[C@@H]1O` [Abamectin] the NOAEL ([1]; duration: 18 weeks) was 0.25 mg/kg-day, the NOAEL ([1]; duration: 53 weeks) was 0.25 mg/kg-day and the LD50 ([2]; acute, duration: 96 hours, mortality) was 0.0036 mg/L. For the same compound, the NOEC ([2]; chronic/long-term, duration: 28 days) was 0.00052 mg/L, the LC50 ([3]; acute, duration: 14 days, mortality) was 33 mg/kg and the NOEC ([3]; not reported) was at least 0.72 mg/kg. It also gave an NOEC [4] of 8.1e-05 mg/L, an LD50 ([5]; acute, oral, unspecified, mortality) of at most 77 mg/kg-day and an NOEC ([5]; chronic/long-term, M) of 1.33 mg/kg-day. For the same compound, the LC50 ([5]; short-term, oral, feed, mortality) was 48.6 mg/kg-day, the NOEC [6] was 1e-05 mg/L and the NOAEL ([7]; acute, clinical signs) was 0.5 mg/kg-day. It also gave an LD50 ([7]; acute, mortality) of 8.7 mg/kg, an NOEC ([7]; chronic, oral) of 0.12 mg/kg-day and an LR50 [8] of over 58 g/ha.
